Data reported in patent publication US9375000B2, “Pesticidal arylpyrrolidines” (Bayer Intellectual Property GmbH, priority 2011, dated 2016).
Where two headings read alike, the source gives them in different places.

Tests used:
Thrips palmi = Thrips palmi spray test (THRIPL); format: in vivo; settings: after 6 days
Procedure, shortened: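 Cucumber seedlings sprayed with compound formulated in DMF/polyoxyethylene alkyl phenyl ether and diluted in water, ammonium salt ± penetration enhancer at 1000 ppm added if needed. About 100 T. palmi eggs attached, plants held caged at 100% humidity, 23 °C. Percent activity scored from feeding damage after 6 days, 100 = no damage, 0 = as untreated.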

[1] = tested on: Larvae of Spodoptera litura; assay: Larvae of Spodoptera litura, method using artificial feeds; format: in vivo; settings: artificial feed, after 7 days
Procedure, shortened: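 Compound formulated in dimethylformamide with polyoxyethylene alkyl phenyl ether emulsifier, water-diluted and poured onto artificial diet. Five 3rd-instar Spodoptera litura larvae per cup, held at 25° C and 50-60% humidity. Mortality after 7 days expressed as pesticidal ratio.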

[2] = tested on: Cucurbit Leaf Beetle (Aulacophora femoralis); assay: Cucurbit leaf beetle (Aulacophora femoralis) cucumber leaf dip test; format: in vivo; settings: after 7 days
Procedure, shortened: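 Cucumber leaves dipped in compound formulated with DMF and polyoxyethylene alkyl phenyl ether, diluted in water, with ammonium salt or ammonium salt plus penetration enhancer at 1000 ppm added if necessary; dried leaves placed on sterilized soil with five second-instar larvae. Kept at 25° C; larval mortality counted after 7 days.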

Musca domestica = assay: Test against Musca domestica; format: in vivo; settings: application rate 100 ppm; after 2 days
Method: (§1) Solvent: dimethyl sulfoxide
To produce a suitable preparation of active compound, 10 mg of active compound are dissolved in 0.5 ml solvent, and the concentrate is diluted with water to the desired concentration. Prior to the assay, a piece of kitchen sponge is soaked with a mixture of sugar and compound solution and placed into a container. 10 adults (Musca domestica) are placed into the container and closed with a perforated lid. After 2 days mortality in % is determined. 100% means that all the flies have been killed; 0% means that none of the flies have been killed.

[3] = tested on: Two-Spotted Spider Mite (Tetranychus urticae); assay: Two-spotted spider mite (Tetranychus urticae) spray test on kidney bean; format: in vivo; settings: after 7 days
Procedure, shortened: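 Kidney bean plants at the two-leaf stage carried 50-100 adult mites and were sprayed one day later with compound in DMF/polyoxyethylene alkyl phenyl ether diluted in water. Ammonium salt and penetration enhancer at 1000 ppm were added if needed. Acaricidal activity (% mites killed) was scored after 7 days in a greenhouse.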

Ctenocephalides felis = assay: Test against Ctenocephalides felis (CTECFE), blood feeding; format: in vivo; settings: application rate 100 ppm in cattle blood; after 2 days
Method: as §1
To produce a suitable preparation of active compound, 10 mg of active compound are dissolved in 0.5 ml solvent, and the concentrate is diluted with cattle blood to the desired concentration. Approximately 20 adult unfed (Ctenocepahlides felis) are placed in flea chambers. The blood chamber, sealed with parafilm on the bottom, are filled with cattle blood supplied with compound solution and placed on top of the flea chamber, so that the fleas are able to suck the blood. The blood chamber is heated to 37° C. whereas the flea chamber is kept at room temperature.
After 2 days mortality in % is determined. 100% means that all the fleas have been killed; 0% means that none of the fleas have been killed.

[4] = tested on: green peach aphids (Myzus persicae); assay: Myzus persicae spray test (MYZUPE); format: in vivo; settings: after 6 days
Method: (§2) Unless not mentioned otherwise, the test solutions were prepared as follows:
(§3) Solvent: 3 parts by weight Dimethylformamide
(§4) Emulsifier: 1 part by weight Polyoxyethylene alkyl phenyl ether
(§5) In order to make an appropriate formulation of an active compound, 1 part by weight of the active compound is mixed with the above mentioned amount of solvent and emulsifier and the mixture is diluted with water to a prescribed concentration. Ammonium salt or ammonium salt and penetration enhancer in a dosage of 1000 ppm are added to the desired concentration if necessary.
1 day before treatment, green peach aphids (Myzus persicae) are inoculated onto the testing plants, about 50 heads per leaf, 100 for 1 pot. A paper label is placed on each pot. Solutions are sprayed directly onto both insects and plants. After drying, the pots are placed in the greenhouse at 20° C.-25° C. After 6 days mortality in % is determined. An insecticidal activity of 100% means that all aphids were killed, whereas an insecticidal activity of 0% means that no aphid was killed.

[5] = tested on: Tobacco Cutworm (Spodoptera litura) Larvae; assay: Tobacco cutworm (Spodoptera litura) larvae, sweet potato leaf dip test; format: in vivo; settings: dead larvae after 7 days
Method: as §2, §3, §4, §5
Leaves of sweet potato were immersed in the test solution at the appropriate concentration, and the leaves were dried in air. The leaves were then placed in a petri dish having a diameter of 9 cm, and ten Spodoptera litura at third instar larvae were released therein. The petri dishes were placed in a temperature-controlled chamber at 25° C. After 2 days and 4 days more sweet potato leaves were added. After 7 days, the number of dead larvae was counted to calculate the insecticidal activity. An insecticidal activity of 100% means that all larvae were killed, whereas an insecticidal activity of 0% means that no larva was killed. In the current test, the results of two petri dishes for each treatment were averaged.

[6] = log P by HPLC on reversed phase columns (EEC directive 79/831 Annex V.A8); format: physicochemical
Method: Calibration was done with not branched alkan2-ones (with 3 to 16 carbon atoms) with known log P-values (measurement of log P values using retention times with linear interpolation between successive alkanones). lambda-maX-values were determined using UV-spectra from 200 nm to 400 nm and the peak values of the chromatographic signals.

[7] = tested on: Nymphs of the tick Amblyomma hebraeum; assay: Amblyomma hebraeum test (AMBYHE), nymph immersion; format: in vivo; settings: application rate 100 ppm; immersion one minute; 42 days
Method: Solvent: Dimethyl sulfoxide
(§6) To produce a suitable preparation of active compound, 10 mg of active compound are dissolved in 0.5 ml solvent, and the concentrate is diluted with water to the desired concentration. Nymphs of the tick Amblyomma hebraeum are placed in perforated plastic beakers and immersed in aqueous compound solution for one minute. Ticks are transferred to a filter paper in a petridish and incubated in a climate chamber for 42 days. After the specified period of time, mortality in % is determined. 100% means that all the ticks have been killed; 0% means that none of the ticks have been killed.

[8] = tested on: adult engorged female Boophilus microplus ticks; assay: Test against Boophilus microplus (dip); format: in vivo; settings: application rate 100 ppm; dip; after 7 days
Method: as §1
as §6, with “Eight to ten adult engorged female Boophilus microplus ticks” for “Nymphs of the tick Amblyomma hebraeum”, “plastic tray. Egg deposition of fertile eggs is monitored after.” for “petridish and incubated in a climate chamber for 42 days.”, “7 days” for “the specified period of time,”

[9] = active compound concentration 20 ppm
[10] = active compound concentration 4 ppm
[11] = active compound concentration 100 ppm

Row | SMILES | insecticidal activity (pesticidal ratio) [1, 10] [%] | insecticidal activity (pesticidal ratio) [1, 9] [%] | insecticidal activity [2, 9] [%] | activity (mortality) (Musca domestica) [%] | acaricidal activity [3, 10] [%] | acaricidal activity [3, 9] [%] | insecticidal activity [2, 10] [%] | other results
1 | O=C(NCc1ccc(N2CCC(c3cc(Cl)c(Cl)c(Cl)c3)(C(F)(F)F)C2O)cc1I)C1CC1 (mixture of isomers) [A1-176] | 100 | 100 | 100 | 80 | 100 | 100 | – | insecticidal activity (by feeding damage degree) (Thrips palmi; [9]): 90%
2 | O=C(NCc1ccc(N2CCC(c3cc(Cl)c(Cl)c(Cl)c3)(C(F)(F)F)C2O)cc1Cl)C1CC1 (centres unmarked) [A1-16] | 100 | – | – | 80 | 100 | – | 100 | insecticidal activity (by feeding damage degree) (Thrips palmi; [11]): 98%; activity (mortality) (Ctenocephalides felis): 90%; insecticidal activity (mortality) [4, 11]: 100%
3 | COCCC(=O)NCc1ccc(N2CCC(c3cc(C(F)(F)F)cc(C(F)(F)F)c3)(C(F)(F)F)C2O)nc1Br (mixture of isomers) [A3-162] | – | – | – | – | – | 90 | – | insecticidal activity [5, 9]: 100%; logP [6]: 3.71
4 | O=C(NCc1ccc(N2CCC(c3cc(Cl)c(Cl)c(Cl)c3)(C(F)(F)F)C2O)nc1Cl)C1CC1 (centres unmarked) [A3-104] | – | – | 100 | – | 100 | – | – | insecticidal activity (by feeding damage degree) (Thrips palmi; [9]): 98%; insecticidal activity [5, 10]: 100%; insecticidal activity (mortality) [4, 9]: 100%
5 | CCC(=O)NCc1ccc(N2CCC(c3cc(Cl)c(Cl)c(Cl)c3)(C(F)(F)F)C2O)nc1Br (centres unmarked) [A3-112] | – | 100 | 100 | 90 | – | 100 | – | –
6 | CCC(=O)NCc1ccc(N2CCC(c3cc(F)cc(C(F)(F)F)c3)(C(F)(F)F)C2O)nc1C(F)(F)F (mixture of isomers) [A3-244] | 100 | 100 | 100 | – | 90 | – | 100 | activity (mortality) [7]: 100%
7 | CN(C)C(=O)NCc1ccc(N2CCC(c3cc(Cl)cc(Cl)c3)(C(F)(F)F)C2O)cc1C(F)(F)F (centres unmarked) [A1-368] | – | – | – | – | – | – | – | log P ([6]; HPLC on reversed phase columns): 3.81; acaricidal activity [3, 11]: 100%
8 | CCC(=O)NCc1cnc(N2CCC(c3cc(Cl)c(Cl)c(Cl)c3)(C(F)(F)F)C2O)nc1C(F)(F)F (centres unmarked) [A4-13] | – | 100 | – | – | – | 100 | – | insecticidal activity (by feeding damage degree) (Thrips palmi; [9]): 98%; insecticidal activity (by feeding damage degree) (Thrips palmi; [11]): 98%; insecticidal activity (mortality) [4, 11]: 90%
9 | CCNC(=O)NCc1ccc(N2CCC(c3cc(Cl)cc(Cl)c3)(C(F)(F)F)C2O)cc1C(F)(F)F (centres unmarked) [A1-369] | – | – | – | – | – | – | – | insecticidal activity [5, 10]: 100%; log P ([6]; HPLC on reversed phase columns): 3.73; acaricidal activity [3, 11]: 100%
10 | O=C(NCc1cc(F)c(N2CCC(c3cc(C(F)(F)F)cc(C(F)(F)F)c3)(C(F)(F)F)C2O)nc1Cl)C1CC1 (centres unmarked) [A3-381] | – | 100 | 100 | – | – | – | 100 | insecticidal activity (by feeding damage degree) (Thrips palmi; [11]): 98%; activity (mortality) [8]: 80%; insecticidal activity (mortality) [4, 11]: 98%
11 | O=C(NCc1ccc(N2CC(c3cc(C(F)(F)F)cc(C(F)(F)F)c3)(C(F)(F)F)CC2=O)nc1C(F)(F)F)C1CC1 (centres unmarked) [C3-27] | – | 100 | – | 90 | – | – | – | insecticidal activity [5, 9]: 100%
12 | O=C(NCc1ccc(N2CCC(c3cc(C(F)(F)F)cc(C(F)(F)F)c3)(C(F)(F)F)C2O)nc1Cl)C1CC1 (centres unmarked) [A3-148] | 100 | – | – | – | – | – | 100 | insecticidal activity (by feeding damage degree) (Thrips palmi; [11]): 90%; logP [6]: 3.96
13 | O=C(NCc1ccc(N2CCC(c3cc(Br)cc(Br)c3)(C(F)(F)F)C2O)cc1C(F)(F)F)C1CC1 (centres unmarked) [A1-253] | 100 | 100 | 100 | 90 | 100 | 100 | 100 | insecticidal activity (by feeding damage degree) (Thrips palmi; [9]): 90%
14 | CCC(=O)NCc1cnc(N2CCC(c3cc(Cl)c(F)c(Cl)c3)(C(F)(F)F)C2O)nc1C(F)(F)F (centres unmarked) [A4-101] | – | – | 100 | – | 100 | – | – | insecticidal activity (by feeding damage degree) (Thrips palmi; [9]): 98%; insecticidal activity [5, 10]: 100%; insecticidal activity (mortality) [4, 9]: 100%
15 | O=C(NCc1ccc(N2CCC(c3cc(Cl)c(F)c(Cl)c3F)(C(F)(F)F)C2O)nc1C(F)(F)F)C1CC1 (mixture of isomers) [A3-214] | 100 | 100 | 100 | – | 100 | 100 | 100 | insecticidal activity (by feeding damage degree) (Thrips palmi; [10]): 90%; insecticidal activity (mortality) [4, 9]: 100%
16 | O=C(NCc1ccc(N2CCC(c3cc(Cl)cc(Cl)c3)(C(F)(F)F)C2O)cc1F)C1CC1 (mixture of isomers) [A1-99] | – | – | 100 | – | 90 | – | – | insecticidal activity [5, 10]: 100%; log P [6]: 3.47
17 | O=C(NCc1ccc(N2CCC(c3cc(F)cc(Cl)c3)(C(F)(F)F)C2O)nc1C(F)(F)F)C1CC1 (mixture of isomers) [A3-170] | – | – | 100 | 90 | – | 100 | – | insecticidal activity [5, 10]: 100%
18 | O=C(CC(F)(F)F)NCc1ccc(N2CCC(c3cc(Cl)c(Cl)c(Cl)c3)(C(F)(F)F)C2O)cc1Cl (centres unmarked) [A1-18] | 100 | – | – | – | 100 | – | 100 | insecticidal activity (by feeding damage degree) (Thrips palmi; [11]): 90%; insecticidal activity (mortality) [4, 11]: 100%
